# Experimental data reported in patent US7727740B1, “Methods for determining whether a chemical agent modulates enzymatic activity of an L-2-hydroxy acid oxidase” (Merck Sharp & Dohme Corp., priority 2005, dated 2010).
# Assays:
# Experiment in all cases: Km determination of hydroxy acid oxidase activity (DCIP-coupled)
# Assay type in all cases: biochemical
# rat Hao2 = target: T1, rat Hao2 (Rattus norvegicus, UniProt Q07523); settings: rat Hao2 enzyme activity against the substrate; FIG. 1B
# T1 sequence (Q07523 1-353): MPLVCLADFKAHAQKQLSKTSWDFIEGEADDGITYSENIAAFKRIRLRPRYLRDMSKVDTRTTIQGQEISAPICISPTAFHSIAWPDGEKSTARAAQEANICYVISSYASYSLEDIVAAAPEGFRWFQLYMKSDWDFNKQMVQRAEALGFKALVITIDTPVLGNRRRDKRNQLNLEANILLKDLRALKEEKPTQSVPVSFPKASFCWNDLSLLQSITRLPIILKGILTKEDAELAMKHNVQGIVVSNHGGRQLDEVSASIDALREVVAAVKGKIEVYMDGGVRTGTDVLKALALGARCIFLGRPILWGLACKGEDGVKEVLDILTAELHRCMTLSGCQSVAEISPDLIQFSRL
# Experimental: (§1) The hydroxyl acid oxidase activity of the Hao enzymes was assayed for oxidation of the enzyme substrate 2-hydroxyoctanoate by monitoring the coupled reduction of 2,6-dichloroindophenol (DCIP) at 605 nm.
# (§2) In order to determine the Km of the enzyme for a given substrate, 20 μl/well of various concentrations of the substrate 2-hydroxyoctanoate were diluted in the assay buffer (100 mM Kpi, 1 mM EDTA and 0.1% BSA) and 175 μl/well of 50 μM 2-6-dichloroindophenol (DCIP) diluted in the same assay buffer was added to a 96-well plate. The reaction was started by the addition of 5 μl/well of the Hao enzyme, and the change in A605 at room temperature (18° C.) was measured over time. An extinction coefficient of […] for DCIP at 605 nm may be used for all calculations. One unit of activity may be defined as the reduction of 1 μmol of DCIP in 1 min (see Jones, J. M., et al., J. Biol. Chem. 275:12590-12597, 2000).
# human Hao2 = target: T2, human Hao2 (Homo sapiens, UniProt Q9NYQ3); settings: human Hao2 enzyme activity against the substrate; FIG. 1A
# T2 construct: made in house; host or cells: E. coli BL21-codonplus-RIPL
# T2 sequence (Q9NYQ3 1-351): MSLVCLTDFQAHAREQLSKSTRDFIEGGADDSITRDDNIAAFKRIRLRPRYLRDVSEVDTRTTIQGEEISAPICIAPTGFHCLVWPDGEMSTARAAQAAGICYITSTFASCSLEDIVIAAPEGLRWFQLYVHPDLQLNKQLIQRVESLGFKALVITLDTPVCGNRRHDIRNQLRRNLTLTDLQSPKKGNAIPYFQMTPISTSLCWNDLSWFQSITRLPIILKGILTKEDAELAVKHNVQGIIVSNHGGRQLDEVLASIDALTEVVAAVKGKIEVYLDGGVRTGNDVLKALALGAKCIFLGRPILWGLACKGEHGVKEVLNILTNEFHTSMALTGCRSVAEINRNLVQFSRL
# Experimental: as §1, §2
# mouse Hao3 = target: T3, mouse Hao3 (Mus musculus, UniProt Q9NYQ2, S203T); settings: mouse Hao3 enzyme activity against the substrate; FIG. 1C
# T3 construct: made in house; host or cells: E. coli BL21-codonplus-RIPL
# T3 sequence (Q9NYQ2 1-353 S203T): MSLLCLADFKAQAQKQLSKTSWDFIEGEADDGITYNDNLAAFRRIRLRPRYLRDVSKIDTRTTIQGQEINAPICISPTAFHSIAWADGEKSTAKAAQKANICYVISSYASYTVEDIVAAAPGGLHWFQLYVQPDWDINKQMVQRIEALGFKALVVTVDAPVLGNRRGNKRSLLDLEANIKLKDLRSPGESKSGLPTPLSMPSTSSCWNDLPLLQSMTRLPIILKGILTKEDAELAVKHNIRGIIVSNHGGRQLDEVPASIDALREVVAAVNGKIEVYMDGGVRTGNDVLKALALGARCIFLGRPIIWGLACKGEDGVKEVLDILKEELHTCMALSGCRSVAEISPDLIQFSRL
# Experimental: as §1, §2
structure (smiles),measurement,setting,value
CCCCCCC(O)C(=O)O (stereo not drawn) [2-hydroxyoctanoate],Km,rat Hao2,43 µM
same,Km,human Hao2,735 µM
same,Km,mouse Hao3,76 µM
